What was measured:
Oryza sativa (rice) = assay: Safener action on rice (flooded pots), damage assessment; assay type: in vivo; settings: herbicide 300 g of a.i./ha, no safener; 3-leaf stage, assessment after 3 weeks
Method: Rice was sown in plastic pots and raised in a greenhouse under optimum growth conditions. After emergence, the pots were filled with water to 2 cm from the top, and this flooding level was maintained throughout the experiment. At the 3- to 4-leaf stage, the plants were then treated with the herbicides and the compounds of the formula I. 3 weeks after treatment, the plants were assessed for damage of any type caused by the herbicides, in particular the extent of lasting growth inhibition and thinning being considered.

Hordeum vulgare (barley) = assay: Safener action on barley, post-emergence greenhouse test, visual damage assessment; settings: no safener
Method: (§1) Seeds of wheat and barley were placed in sandy loam soil in plastic pots, raised to the 3- to 4-leaf stage in a greenhouse and then treated successively with the compounds according to the invention and the herbicides using the post-emergence method. The herbicides and the compounds of the formula I were applied in the form of aqueous suspensions or emulsions at an application rate of 300 l/ha (converted). 3-4 weeks after the treatment, the plants were assessed visually for damage of any type caused by the herbicides applied, in particular the extent of lasting growth inhibition being taken into account. The assessment was made in percentages compared with untreated controls.
(§2) Test conditions: Application at the 4-leaf stage; assessment after 4 weeks; 4 replications
Test conditions: Application at the 3-leaf stage;
assessment after 2-3 weeks; 4 replications

[1] = system: Triticum aestivum (wheat); assay: Safener action on wheat, post-emergence greenhouse test, visual damage assessment; assay type: in vivo; settings: no safener, 4-leaf stage, assessment after 4 weeks
Method: as §1, §2

[2] = system: Triticum durum (hard wheat); assay: Safener action on hard wheat, post-emergence greenhouse test, visual damage assessment; assay type: in vivo; settings: no safener, 4-leaf stage, assessment after 4 weeks
Method: as §1, §2

corn (Zea mays) [3] = assay: Safener action on corn, post-emergence test, visual damage assessment; assay type: in vivo; settings: no safener, 4-leaf stage, assessment after 4 weeks; for Damage [%] in corn varieties: Felix: variety Felix; for Damage [%] in corn varieties: Mutin: variety Mutin; for Damage [%] in corn varieties: Dea: variety Dea
Text: Corn plants, weed and weed grasses were raised to the 4- to 5-leaf stage in plastic pots outside or in the greenhouse and treated successively with herbicides and compounds of the formula I according to the invention using the post-emergence method. […] The assessment was made in percent compared with untreated controls.

corn (Zea mays) [4] = assay: as above; assay type: in vivo; settings: herbicide 75 g of a.i./ha, no safener; 3-leaf stage, assessment after 3 weeks
[5] = system: Oryza sativa (transplanted); assay: Safener action on transplanted rice, application by watering, visual damage assessment; assay type: in vivo; settings: herbicide 450 g of a.i./ha, no safener, 3 days after transplanting, assessed 4 weeks after application
Method: Rice was sown in sandy soil in pots in a greenhouse and raised to a growth height of 24-25 cm. The rice was then transplanted into a water-covered soil and, 3 days after transplanting, treated with a herbicide or a herbicide/safener combination by watering. 4 weeks after application, plant damage was assessed visually compared with untreated controls (results see Table 9).

Q: For `CCOC(=O)[C@@H](C)Oc1ccc(Oc2nc3ccc(Cl)cc3o2)cc1` [H1, fenoxaprop-P-ethyl], which “Damage [%] ORSA” value (Oryza sativa (rice)) is on record?
A: The value was 80%.

Q: What about the “Damage [%] HV” value (Hordeum vulgare (barley); herbicide 100 g of a.i./ha, 4-leaf stage, assessment after 4 weeks) of the same molecule?
A: The value was 80%.

Q: What about the “Damage [%] HV” value (Hordeum vulgare (barley); herbicide 200 g of a.i./ha, 3-leaf stage, assessment after 2-3 weeks) of the same molecule?
A: Its value is 85%.

Q: What about the “Damage [%] HV” value (Hordeum vulgare (barley); herbicide 200 g of a.i./ha, 4-leaf stage, assessment after 4 weeks) of the same molecule?
A: Its value is 90%.

Q: What about the “Damage [%] HV” value (Hordeum vulgare (barley); herbicide 400 g of a.i./ha, 4-leaf stage, assessment after 4 weeks) of the same molecule?
A: Its value is 98%.

Q: What about the “Damage [%] TA” value ([1]; herbicide 100 g of a.i./ha) of the same molecule?
A: The value was 10%.

Q: And the “Damage [%] TA” value ([1]; herbicide 200 g of a.i./ha)?
A: Its value is 30%.

Q: What about the “Damage [%] TA” value ([1]; herbicide 400 g of a.i./ha) of the same molecule?
A: Its value is 40%.

Q: And the “Damage [%] TD” value ([2]; herbicide 100 g of a.i./ha)?
A: The value was 95%.

Q: What about the “Damage [%] TD” value ([2]; herbicide 200 g of a.i./ha) of the same molecule?
A: The value was 95%.

Q: And the “Damage [%] TD” value ([2]; herbicide 400 g of a.i./ha)?
A: The value was 98%.

Q: Which results are given for `COC(=O)C(C)Oc1ccc(Oc2ccc(Cl)cc2Cl)cc1` (stereo not shown) [H2, diclofop-methyl]?
A: Damage [%] HV (Hordeum vulgare (barley); herbicide 900 g of a.i./ha, 4-leaf stage, assessment after 4 weeks): 10%; Damage [%] HV (Hordeum vulgare (barley); herbicide 1800 g of a.i./ha, 4-leaf stage, assessment after 4 weeks): 40%

Q: How did the “Damage [%] TA” value ([1]; herbicide 12 g of a.i./ha) turn out when `COC(=O)c1ccc(I)cc1S(=O)(=O)NC(=O)Nc1nc(C)nc(OC)n1.[Na]` [H3, methyl 4-iodo-2-[3-(4-methoxy-6-methyl-1,3,5-triazin-2-yl)ureidosulfonyl]benzoate, sodium salt] was run?
A: Its value is 15%.

Q: What about the “Damage [%] TA” value ([1]; herbicide 25 g of a.i./ha) of the same molecule?
A: The value was 80%.

Q: And the “Damage [%] TA” value ([1]; herbicide 50 g of a.i./ha)?
A: Its value is 70%.

Q: What does the source list for `COc1cc(OC)nc(Oc2cccnc2C(=O)OCc2ccccc2)n1` [H4, benzyl 3-(4,6-dimethoxypyrimidin-2-yloxy)pyridine-2-carboxylate]?
A: Damage to corn [%] Alois variety (corn (Zea mays) [3]; herbicide 38 g of a.i./ha): 20%; Damage to corn [%] Felix variety (corn (Zea mays) [3]; herbicide 38 g of a.i./ha): 0%; Damage to corn [%] Alois variety (corn (Zea mays) [3]; herbicide 75 g of a.i./ha): 40%; Damage to corn [%] Felix variety (corn (Zea mays) [3]; herbicide 75 g of a.i./ha): 30%; Damage to corn [%] Alois variety (corn (Zea mays) [3]; herbicide 150 g of a.i./ha): 55%; Damage to corn [%] Felix variety (corn (Zea mays) [3]; herbicide 150 g of a.i./ha): 50%; Damage to corn [%] Alois variety (corn (Zea mays) [3]; herbicide 300 g of a.i./ha): 60%; Damage to corn [%] Felix variety (corn (Zea mays) [3]; herbicide 300 g of a.i./ha): 60%

Q: For `COC(=O)c1sccc1NC(=O)Nc1nc(C)nc(OC)n1` [H7, 1-(2-methoxycarbonylthiophen-3-yl)-3-(4-methoxy-6-methyl-1,3,5-triazin-2-yl)urea], which “Damage [%] in corn varieties: Felix” value (corn (Zea mays) [3]; herbicide 8 g a.i./ha) is on record?
A: The value was 0%.

Q: What about the “Damage [%] in corn varieties: Felix” value (corn (Zea mays) [3]; herbicide 15 g a.i./ha) of the same molecule?
A: The value was 15%.

Q: And the “Damage [%] in corn varieties: Felix” value (corn (Zea mays) [3]; herbicide 30 g a.i./ha)?
A: Its value is 40%.

Q: And the “Damage [%] in corn varieties: Felix” value (corn (Zea mays) [3]; herbicide 60 g a.i./ha)?
A: Its value is 75%.

Q: What about the “Damage [%] in corn varieties: Mutin” value (corn (Zea mays) [3]; herbicide 8 g a.i./ha) of the same molecule?
A: The value was 5%.

Q: And the “Damage [%] in corn varieties: Mutin” value (corn (Zea mays) [3]; herbicide 15 g a.i./ha)?
A: The value was 10%.

Q: What about the “Damage [%] in corn varieties: Mutin” value (corn (Zea mays) [3]; herbicide 30 g a.i./ha) of the same molecule?
A: Its value is 30%.

Q: What about the “Damage [%] in corn varieties: Mutin” value (corn (Zea mays) [3]; herbicide 60 g a.i./ha) of the same molecule?
A: Its value is 70%.

Q: What does the source list for `COc1cc(OC)nc(NC(=O)NS(=O)(=O)c2ncccc2N(C)S(C)(=O)=O)n1` [H8, 3-(4,6-dimethoxypyrimidin-2-yl)-1-[3(-N-methyl-N-methylsulfonylamino)-2-pyridylsulfonyl]urea]?
A: Damage in corn [%] Felix variety (corn (Zea mays) [4]): 75%; Damage [%] in corn varieties: Dea (corn (Zea mays) [3]; herbicide 25 g a.i./ha): 0%; Damage [%] in corn varieties: Dea (corn (Zea mays) [3]; herbicide 50 g a.i./ha): 0%; Damage [%] in corn varieties: Dea (corn (Zea mays) [3]; herbicide 100 g a.i./ha): 10%; Damage [%] in corn varieties: Dea (corn (Zea mays) [3]; herbicide 200 g a.i./ha): 35%; Damage [%] in corn varieties: Felix (corn (Zea mays) [3]; herbicide 25 g a.i./ha): 25%; Damage [%] in corn varieties: Felix (corn (Zea mays) [3]; herbicide 50 g a.i./ha): 55%; Damage [%] in corn varieties: Felix (corn (Zea mays) [3]; herbicide 100 g a.i./ha): 65%; Damage [%] in corn varieties: Felix (corn (Zea mays) [3]; herbicide 200 g a.i./ha): 70%; Damage [%] in corn varieties: Mutin (corn (Zea mays) [3]; herbicide 25 g a.i./ha): 15%; Damage [%] in corn varieties: Mutin (corn (Zea mays) [3]; herbicide 50 g a.i./ha): 30%; Damage [%] in corn varieties: Mutin (corn (Zea mays) [3]; herbicide 100 g a.i./ha): 60%; Damage [%] in corn varieties: Mutin (corn (Zea mays) [3]; herbicide 200 g a.i./ha): 65%

Q: With `COP(=S)(OC)SCC(=O)N(c1ccc(Cl)cc1)C(C)C` [H9, anilofos] as the molecule, how does the “Damage [%] ORSA-T” value [5] read?
A: The value was 50%.
